Ends that are not written are not given here.
Tests used:
Type in all cases: cell-based
[1] = test system: murine macrophage-like cell line denominated P388.D1; assay: Prostaglandin E secretion (radioimmune assay); conditions: 25 ug/ml of p23 or an equimolar amount of another polypeptide, 24 hours; initial data
Protocol: (§1) The cell lines used in these studies were: (1) murine plastic-adherent macrophages; (2) human plastic-adherent monocytes; and (3) the murine macrophage-like cell line denominated P388.D1 [Snyderman et al., J. Immunol., 119, 2060 (1977)]. […] Thereafter, the cell culture supernatant was assayed for the presence of a prostaglandin E using a commercially available radioimmune assay (Seragen).

[2] = test system: human plastic-adherent monocytes; assay: Prostaglandin E secretion (radioimmune assay); conditions: 25 ug/ml of p23 or an equimolar amount of another polypeptide, 24 hours; initial data
Protocol: as §1

[3] = test system: murine plastic-adherent macrophages; assay: Prostaglandin E secretion (radioimmune assay); conditions: 25 ug/ml of p23 or an equimolar amount of another polypeptide, 24 hours; initial data
Protocol: as §1

mouse spleen cells = assay: Polyclonal antibody response assay (Ig secretion measured by ELISA); conditions: C57BL/6 spleen cells, 5 days; equimolar amounts of polypeptide, 1.5 mg/ml of p23 as standard
Excerpt: This assay measures the activity of a polypeptide in potentiating an in vitro polyclonal antibody response using mouse spleen cells.
For the generation of immunoglobulin (Ig) secretion response, spleen cells from inbred male 8-15 week old C57BL/6 mice (The Jackson Laboratory, Bar Harbor, ME) were suspended in RPMI 1640 medium (M.A. Bioproducts, Walkersville, MD) supplemented with 2 millimolar (mM) L-glutamine, one percent BME vitamins (GIBCO, Grand Island, NY), 5×10^-5 molar (M) 2-mercaptoethanol, 7.5 percent fetal calf serum (FCS;GIBCO), and 0.001 percent gentamicin (Schering Corp., Kenilworth, NJ). Cells (6×10^5) in 0.2 milliliters (ml) of the supplemented medium were added to flat-bottomed microtiter plate wells (No. 3596: Costar, Cambridge, MA). Cultures were established in triplicate, and a polypeptide-containing composition was added in a volume of 50 microliters per well (ul/well).
To establish comparison between polypeptides of different lengths, equimolar amounts of polypeptide were used, with 1.5 milligrams per milliter (mg/ml) of the 23-residue polypeptide corresponding in sequence to positions 335-357 of the human IgGl myeloma protein as standard. […] Supernatants from triplicate cell culture wells were harvested, pooled, centrifuged to remove cells and stored at -20° C. Concentrations of Ig in the supernatants were determined by the ELISA assay described hereinbelow.
The ELISA utilized to measure polyclonal activation was a so-called "sandwich" assay in which the assayed entity, mouse Ig molecules, are bound to solid phase-bound anti-mouse Ig antibodies and then bound by indicator (alkaline phosphatase)-linked anti-mouse Ig antibodies.
(B) 100 Microliters of various dilutions of either the Ig standard or culture supernatants were then admixed in PBS-Tween. […]
Each well then received 100 ul of 1 mg p-nitrophenyl phosphate (Sigma Chemical Co., St. Louis, MO) in 0.05 M carbonate, pH 9.8. The reaction was stopped with 50 ml of 0.3 N NaOH, and the light absorbance at 410 nanometers (nm) was measured by using a Dynatech model MR600 ELISA reader. […]

| Substance | secretion of a prostaglandin E into the culture medium [1] | secretion of a prostaglandin E into the culture medium [2] | secretion of a prostaglandin E into the culture medium [3] | Ig Found (amount of polyclonal Ig molecules found in the assay) (mouse spleen cells) [µg/mL] |
| --- | --- | --- | --- | --- |
| YTLPPSREE [I-51(b)] | incapable of inducing | incapable of inducing | incapable of inducing | 10.7 |
| QVYTLPPSREE [I-51(c)] | incapable of inducing | incapable of inducing | incapable of inducing | 11.7 |
| LPPSREE [I-51(a), Leu-Pro-Pro-Ser-Arg-Glu-Glu] | incapable of inducing | incapable of inducing | incapable of inducing | 10.2 |

— patent US4683221A, “Lymphocyte-activating polypeptides” (Scripps Clinic and Research Foundation, priority 1986, dated 1987)
